From patent US20230263808A1 (UNIVERSITY OF FLORIDA RESEARCH FOUNDATION, INCORPORATED, priority 2020, published 2023)

What was measured:
C2C12 myotubes = assay: Protein degradation: chymotrypsin-like proteasomal activity in C2C12 myotubes; assay type: cell-based, mouse
Method: (§1) A) C2C12 myotubes were assayed for chymotrypsin-like proteasomal activity. […] C) Quantitation of the ICW in panel B. D) ICW for surface expression of Glut4 on L6 myotubes. E) ICW for insulin-induced incorporation of puromycin into C2C12 myotube surface proteins. F-G) High-content imaging and analysis of C2C12 myoblasts stained with a Mitotracker dye. H) Assay reproducibility from screening 22 compounds on two separate occasions. The Pearson correlation coefficient, r, and its associated p-value is indicated.
(§2) C2C12 myocytes were used in all assays, except in the Glut4 translocation assay where L6 rat myocytes were used. ICW, In-Cell Western. Also see Methods.
To avoid such effects on myogenesis, we switched myoblasts to differentiation media, and then on day 4, added 10 μM cytarabine, a chemotherapy agent that kills dividing cells, and then adding GCs on day 6 or 7 and completing assays in day 8 (FIG. 8).
Physiologically, the effects of GCs on protein balance and Glut4 translocation vary in vivo depending upon the stressor. For example, GCs mediate atrophy in response to fasting but not exercise. […] To assess protein degradation, we measured chymotrypsin-like proteasomal activity (FIG. 2, A). The activating phosphorylation of AKT at Thr308 (pAKT) was measured using a LI-COR In-Cell Western assay (FIG. 2, B and C). The rate-limiting step in insulin-mediated glucose uptake is the translocation of the glucose transporter, Glut4, to the surface membrane, which we also measured by In-Cell Western without permeabilizing the myotubes (FIG. 2, D). Surface Sensing of Translation (SUnSET) (Schmidt et al., Nat Methods 6, 275-277, 2009) assay was used to measure protein synthesis by In-Cell Western, following treatment of myotubes with a low dose of puromycin, which incorporates into translating proteins, but at a low enough level to provide a readout for global protein synthesis (FIG. 2, E). […]

[1] = test system: IL-1β-induced IL-6 secretion by A549 lung cells; assay: IL-1β-induced IL-6 secretion by A549 lung cells (AlphaLISA); assay type: cell-based
L6 myotubes = assay: Glut4 translocation to the myotube surface (In-Cell Western); assay type: cell-based, rat
Method: as §1, §2
Physiologically, the effects of GCs on protein balance and Glut4 translocation vary in vivo depending upon the stressor. For example, GCs mediate atrophy in response to fasting but not exercise. […] To assess protein degradation, we measured chymotrypsin-like proteasomal activity (FIG. 2, A). The activating phosphorylation of AKT at Thr308 (pAKT) was measured using a LI-COR In-Cell Western assay (FIG. 2, B and C). The rate-limiting step in insulin-mediated glucose uptake is the translocation of the glucose transporter, Glut4, to the surface membrane, which we also measured by In-Cell Western without permeabilizing the myotubes (FIG. 2, D). Surface Sensing of Translation (SUnSET) (Schmidt et al., Nat Methods 6, 275-277, 2009) assay was used to measure protein synthesis by In-Cell Western, following treatment of myotubes with a low dose of puromycin, which incorporates into translating proteins, but at a low enough level to provide a readout for global protein synthesis (FIG. 2, E). Lastly, we developed a high-content imaging assay in myoblasts stained with a MitoTracker dye, so that individual mitochondrial networks could be visualized with adequate resolution to quantitate area, segmentation, branching, and fluorescence intensity which is a measure of mitochondrial membrane potential (ψm).

Row | IC50 ([1]; A549 lung cells, read-out: potency for inhibiting IL-1β-induced IL-6 secretion) | SMILES | effect on protein degradation (proteasomal) (C2C12 myotubes) | inhibition of IL-6 production in combination with RU486 ([1]; A549 cells, with RU486) | effect on Glut4 translocation (L6 myotubes)
1 | 4 nM | C=CCOC1CC2(C)C(CCC2(O)C#CC)C2CCc3cc(C(=O)Nc4cccnc4C)ccc3C12 (stereo not shown) [SR11466] | no effect | reversed by RU486 | 
2 |  | CC#CC1(O)CCC2C3CCc4cc(C(=O)Nc5cccnc5C)ccc4C3C(OCc3ccccc3Cl)CC21C (stereo not shown) [SR16024] |  |  | no inhibition
